Measured values as given in US10227324B2 (Shanghai Haiyan Pharmaceutical Technology Co., Ltd., priority 2014, dated 2019).
Like-named read-outs stand apart in the source and are kept apart here.

Columns and labels:
[1] = molecular target: T1, PI3K-α kinase (p110α/p85α) (Homo sapiens, UniProt P42336); assay: Determination of PI3K kinase activity (ADP Transcreener, fluorescence polarization); assay type: biochemical; conditions: ATP 10 μM
T1 construct: purchased Invitrogen PV4788
Method: (§1) The inhibition of PI3K kinase activity by the compound to be tested was determined by the following method. The working concentration of each component in the 25 μL enzyme reaction system was: p110α/p85α 3 ng (or p110β/p85α 60 ng, or p110δ/p85α 90 ng, or p110γ 100 ng), ATP 10 μM, PIP2: PS (Invitrogen PV5100) 30 μM and the DMSO concentration was 2% after addition of the compound to be tested.
(§2) At the time of the test, the compound to be tested was dissolved in dimethylsulfoxide (DMSO) according to the desired concentration of the experiment. The compound to be tested was gradiently diluted 3 times (0.00046-1 μM, 8 concentration points) with 10% DMSO. 5 μL of the compound to be tested was added to each well of a 96-well plate (Greiner 675076) in duplicate. […] 10 μL of ATP/PIP2: PS and 10 μL of the PI3K enzyme working solution were added to each well in a 96-well plate. The plate was shaken and mixed uniformly, and then incubated at 25° C. for 1 hour. At the same time, ADP and ATP (0.01 μM, 0.02 μM, 0.04 μM, 0.06 μM, 0.08 μM[…], 0.1 μM, 0.25 μM, 0.5 μM, 1 μM, 2 μM, 5 μM, 10 μM, 12 concentration points) were diluted with buffer to set the standard curve. After completion of the enzyme reaction, 25 μL of ADP assay solution (1% 100×ADP tracer, 0.79% ADP antibody and 10% 10× reaction stop solution) was added and incubated at 25° C. for 1 hour. Fluorescence polarization value [mP] of each well was measured with a Perkin Elmer Victor X5 Fluorescent Microplate. The ADP concentration [ADP] was calculated from the ADP/ATP standard curve and the IC50 values were calculated using the XLFit software.

PI3K-γ kinase (p110γ) = molecular target: T2, PI3K-γ kinase (p110γ) (Homo sapiens, UniProt P48736); assay: as above; assay type: biochemical; conditions: Table 1; ATP 10 μM; read-out: PI3K-γ/nM (IC50 of inhibitory activity against PI3K kinase)
T2 construct: purchased Invitrogen PV4786
T2 sequence (P48736 whole entry): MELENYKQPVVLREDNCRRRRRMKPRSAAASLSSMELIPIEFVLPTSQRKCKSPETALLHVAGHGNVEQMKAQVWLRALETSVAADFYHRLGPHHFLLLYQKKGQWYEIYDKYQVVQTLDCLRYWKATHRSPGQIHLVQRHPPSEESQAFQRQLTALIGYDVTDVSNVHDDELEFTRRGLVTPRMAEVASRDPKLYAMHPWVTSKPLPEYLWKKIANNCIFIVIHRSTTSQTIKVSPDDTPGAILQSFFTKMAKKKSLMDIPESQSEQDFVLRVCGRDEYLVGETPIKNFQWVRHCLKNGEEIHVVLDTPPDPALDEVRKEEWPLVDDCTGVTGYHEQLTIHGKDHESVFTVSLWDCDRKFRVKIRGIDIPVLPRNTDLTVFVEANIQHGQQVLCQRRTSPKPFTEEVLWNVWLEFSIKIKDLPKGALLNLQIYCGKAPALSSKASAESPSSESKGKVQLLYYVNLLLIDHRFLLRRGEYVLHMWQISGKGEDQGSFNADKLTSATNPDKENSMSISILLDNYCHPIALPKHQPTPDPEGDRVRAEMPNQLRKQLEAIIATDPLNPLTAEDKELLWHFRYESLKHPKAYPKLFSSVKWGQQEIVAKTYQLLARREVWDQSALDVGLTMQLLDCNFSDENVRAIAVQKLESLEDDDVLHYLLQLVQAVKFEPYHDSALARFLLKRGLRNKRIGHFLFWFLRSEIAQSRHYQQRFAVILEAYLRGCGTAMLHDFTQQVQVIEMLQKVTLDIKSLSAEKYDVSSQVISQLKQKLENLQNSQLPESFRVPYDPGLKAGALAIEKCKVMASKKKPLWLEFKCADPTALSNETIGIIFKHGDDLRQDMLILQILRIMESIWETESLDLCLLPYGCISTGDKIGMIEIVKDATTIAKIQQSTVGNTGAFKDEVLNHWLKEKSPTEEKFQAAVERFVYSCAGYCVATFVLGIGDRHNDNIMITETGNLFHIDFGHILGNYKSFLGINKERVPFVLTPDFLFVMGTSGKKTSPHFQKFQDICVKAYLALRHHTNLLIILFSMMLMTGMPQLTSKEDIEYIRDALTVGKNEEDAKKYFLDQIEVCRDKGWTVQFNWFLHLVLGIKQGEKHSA
Method: The PI3K kinase used in the experiment: p110α/p85α (Invitrogen PV4788), p110β/p85α (Millipore 14-603), p110δ/p85α (Millipore 14-604M), and p110γ (Invitrogen PV4786).
as §1
as §2, with “duplicate. 2.5× buffer was prepared and 1 μL of DTT (Millipore 20-265) was added to each 800 μL of 2.5× buffer.” for “duplicate.”

[2] = molecular target: T3, PI3K-β kinase (p110β/p85α) (Homo sapiens, UniProt P42338); assay: as above; assay type: biochemical; conditions: Table 1; ATP 10 μM; read-out: PI3K-β/nM (IC50 of inhibitory activity against PI3K kinase)
T3 construct: purchased Millipore 14-603
T3 sequence (P42338 whole entry): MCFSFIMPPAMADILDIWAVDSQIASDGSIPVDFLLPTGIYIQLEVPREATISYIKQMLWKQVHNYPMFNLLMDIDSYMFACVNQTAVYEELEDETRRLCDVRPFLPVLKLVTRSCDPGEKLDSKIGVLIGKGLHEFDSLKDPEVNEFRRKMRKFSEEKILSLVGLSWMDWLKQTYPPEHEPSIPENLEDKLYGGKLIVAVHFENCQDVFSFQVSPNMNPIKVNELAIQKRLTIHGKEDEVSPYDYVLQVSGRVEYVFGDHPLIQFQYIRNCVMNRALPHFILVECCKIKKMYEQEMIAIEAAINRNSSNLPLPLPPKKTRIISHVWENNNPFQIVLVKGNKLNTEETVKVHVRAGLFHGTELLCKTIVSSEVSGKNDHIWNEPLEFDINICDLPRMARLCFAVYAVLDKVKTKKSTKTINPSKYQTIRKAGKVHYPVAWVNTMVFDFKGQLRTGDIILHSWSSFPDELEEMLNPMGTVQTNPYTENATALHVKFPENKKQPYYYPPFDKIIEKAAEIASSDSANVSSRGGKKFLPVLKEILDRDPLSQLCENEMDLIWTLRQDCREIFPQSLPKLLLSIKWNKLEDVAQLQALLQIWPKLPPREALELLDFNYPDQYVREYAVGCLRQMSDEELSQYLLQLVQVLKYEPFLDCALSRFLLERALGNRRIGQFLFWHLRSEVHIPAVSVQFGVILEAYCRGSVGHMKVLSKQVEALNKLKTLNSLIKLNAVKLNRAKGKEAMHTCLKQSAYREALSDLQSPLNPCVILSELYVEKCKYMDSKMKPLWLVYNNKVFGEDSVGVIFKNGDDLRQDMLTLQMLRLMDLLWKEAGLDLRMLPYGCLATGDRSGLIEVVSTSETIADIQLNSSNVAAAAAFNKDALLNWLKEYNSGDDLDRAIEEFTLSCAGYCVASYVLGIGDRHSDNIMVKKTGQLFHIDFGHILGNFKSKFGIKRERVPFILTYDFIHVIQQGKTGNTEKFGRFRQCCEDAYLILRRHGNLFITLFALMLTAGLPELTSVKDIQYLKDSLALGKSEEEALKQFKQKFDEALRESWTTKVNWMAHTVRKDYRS
T3 sequence (P27986 whole entry partner): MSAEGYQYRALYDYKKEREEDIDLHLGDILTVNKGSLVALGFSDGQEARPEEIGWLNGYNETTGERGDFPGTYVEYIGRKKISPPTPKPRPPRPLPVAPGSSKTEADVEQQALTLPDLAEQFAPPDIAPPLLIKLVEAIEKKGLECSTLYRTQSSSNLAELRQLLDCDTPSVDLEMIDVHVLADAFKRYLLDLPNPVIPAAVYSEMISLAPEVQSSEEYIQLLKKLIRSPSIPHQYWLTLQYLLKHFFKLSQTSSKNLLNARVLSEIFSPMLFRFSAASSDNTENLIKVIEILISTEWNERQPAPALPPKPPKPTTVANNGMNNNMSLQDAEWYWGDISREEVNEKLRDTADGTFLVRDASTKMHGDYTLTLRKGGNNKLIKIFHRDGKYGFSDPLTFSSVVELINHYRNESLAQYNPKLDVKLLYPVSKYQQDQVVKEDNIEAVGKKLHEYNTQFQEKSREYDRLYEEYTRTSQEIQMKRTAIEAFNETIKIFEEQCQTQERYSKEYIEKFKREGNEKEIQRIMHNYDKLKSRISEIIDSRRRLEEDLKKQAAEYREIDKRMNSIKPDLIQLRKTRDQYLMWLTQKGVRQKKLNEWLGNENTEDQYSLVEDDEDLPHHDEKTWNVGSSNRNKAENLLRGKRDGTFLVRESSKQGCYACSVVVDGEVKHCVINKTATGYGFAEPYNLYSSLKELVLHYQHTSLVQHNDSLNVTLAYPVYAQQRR
Method: as §1, §2

[3] = molecular target: T4, PI3K-δ kinase (p110δ/p85α) (Homo sapiens, UniProt O00329); assay: as above; assay type: biochemical; conditions: Table 1; ATP 10 μM; read-out: PI3K-δ/nM (IC50 of inhibitory activity against PI3K kinase)
T4 construct: purchased Millipore 14-604M
T4 sequence (O00329 whole entry): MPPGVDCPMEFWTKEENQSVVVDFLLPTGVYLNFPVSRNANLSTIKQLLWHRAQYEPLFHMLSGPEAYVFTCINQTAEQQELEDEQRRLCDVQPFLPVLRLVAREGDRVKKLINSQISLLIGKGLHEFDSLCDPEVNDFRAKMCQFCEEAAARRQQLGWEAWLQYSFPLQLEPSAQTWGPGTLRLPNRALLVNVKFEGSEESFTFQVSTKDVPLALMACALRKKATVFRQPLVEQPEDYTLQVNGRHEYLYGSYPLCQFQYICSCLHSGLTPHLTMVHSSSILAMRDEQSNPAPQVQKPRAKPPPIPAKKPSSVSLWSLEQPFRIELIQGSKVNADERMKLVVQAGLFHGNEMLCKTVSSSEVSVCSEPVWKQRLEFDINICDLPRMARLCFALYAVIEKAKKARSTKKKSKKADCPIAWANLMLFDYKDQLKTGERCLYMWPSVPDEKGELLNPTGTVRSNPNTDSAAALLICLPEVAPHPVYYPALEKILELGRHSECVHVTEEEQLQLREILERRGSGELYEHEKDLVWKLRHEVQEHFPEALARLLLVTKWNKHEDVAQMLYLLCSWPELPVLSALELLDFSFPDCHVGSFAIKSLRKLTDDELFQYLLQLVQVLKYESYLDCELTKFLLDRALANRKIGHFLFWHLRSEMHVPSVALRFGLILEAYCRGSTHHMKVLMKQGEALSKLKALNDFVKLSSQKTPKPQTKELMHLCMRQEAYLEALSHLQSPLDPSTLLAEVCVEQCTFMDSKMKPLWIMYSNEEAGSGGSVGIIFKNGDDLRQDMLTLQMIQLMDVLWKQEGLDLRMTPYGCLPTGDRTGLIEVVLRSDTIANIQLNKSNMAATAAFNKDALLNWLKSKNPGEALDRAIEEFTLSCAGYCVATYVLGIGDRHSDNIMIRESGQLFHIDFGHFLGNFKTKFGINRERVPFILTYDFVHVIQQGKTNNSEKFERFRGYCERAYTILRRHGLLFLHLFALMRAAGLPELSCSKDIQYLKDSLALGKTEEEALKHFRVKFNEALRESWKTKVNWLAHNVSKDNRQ
T4 sequence (P27986 whole entry partner): as the sequence (P27986 whole entry partner) above
Method: as §1, §2

T47D cells = assay: Cell inhibitory activity detected by MTT assay, T47D; assay type: cell-based; conditions: Homo sapiens, T47D, 72 h, read-out: T47D cell (IC50/nM), cell growth inhibition
Method: (§3) The MTT assay procedure and steps were carried out as well known to those skilled in the art, and all the reagents used in the methods were commercially available. The cells in logarithmic growth phase were digested with 0.25% EDTA trypsin (Gibco, 25200-056) and resuspended in fresh medium. 90 μL of the cell suspension was inoculated into a 96-well cell culture plate (BD Faclon 353072) with a suitable cell density and cultured at 37° C. under 5% CO2. After the cells adhered, 10 μL of the test compound at different concentrations (0.0046-10 μM, 8 concentration points) was added and incubated for another 72 h. 10 μL of MTT (5 mg/mL PBS solution) (Sigma, M5655) was added to react for 4 h. The absorbance at 492 nm was measured by using Thermo Scientific Multiskan MK3 microplate reader and IC50 was calculated using XLFIT 5.0 software (UK IDBS). T47D cell culture medium: RPMI-1640 medium (Hyclone SH30809.01B)+10% FBS (Gibco 10099-141)

MCF-7 cells = assay: Cell inhibitory activity detected by MTT assay, MCF-7; assay type: cell-based; conditions: Homo sapiens, MCF7, 72 h, read-out: MCF-7 cell (IC50/nM), cell growth inhibition
Method: as §3, with “MCF-7” for “T47D”, “DMEM” for “RPMI-1640”, “SH30243.01B+10%” for “SH30809.01B)+10%”

[4] = Table 2, read-out: PI3K-α/nM (IC50 of inhibitory activity against PI3K-α kinase)
[5] = Table 1, read-out: PI3K-α/nM (IC50 of inhibitory activity against PI3K kinase)

T1 sequence (P42336 whole entry): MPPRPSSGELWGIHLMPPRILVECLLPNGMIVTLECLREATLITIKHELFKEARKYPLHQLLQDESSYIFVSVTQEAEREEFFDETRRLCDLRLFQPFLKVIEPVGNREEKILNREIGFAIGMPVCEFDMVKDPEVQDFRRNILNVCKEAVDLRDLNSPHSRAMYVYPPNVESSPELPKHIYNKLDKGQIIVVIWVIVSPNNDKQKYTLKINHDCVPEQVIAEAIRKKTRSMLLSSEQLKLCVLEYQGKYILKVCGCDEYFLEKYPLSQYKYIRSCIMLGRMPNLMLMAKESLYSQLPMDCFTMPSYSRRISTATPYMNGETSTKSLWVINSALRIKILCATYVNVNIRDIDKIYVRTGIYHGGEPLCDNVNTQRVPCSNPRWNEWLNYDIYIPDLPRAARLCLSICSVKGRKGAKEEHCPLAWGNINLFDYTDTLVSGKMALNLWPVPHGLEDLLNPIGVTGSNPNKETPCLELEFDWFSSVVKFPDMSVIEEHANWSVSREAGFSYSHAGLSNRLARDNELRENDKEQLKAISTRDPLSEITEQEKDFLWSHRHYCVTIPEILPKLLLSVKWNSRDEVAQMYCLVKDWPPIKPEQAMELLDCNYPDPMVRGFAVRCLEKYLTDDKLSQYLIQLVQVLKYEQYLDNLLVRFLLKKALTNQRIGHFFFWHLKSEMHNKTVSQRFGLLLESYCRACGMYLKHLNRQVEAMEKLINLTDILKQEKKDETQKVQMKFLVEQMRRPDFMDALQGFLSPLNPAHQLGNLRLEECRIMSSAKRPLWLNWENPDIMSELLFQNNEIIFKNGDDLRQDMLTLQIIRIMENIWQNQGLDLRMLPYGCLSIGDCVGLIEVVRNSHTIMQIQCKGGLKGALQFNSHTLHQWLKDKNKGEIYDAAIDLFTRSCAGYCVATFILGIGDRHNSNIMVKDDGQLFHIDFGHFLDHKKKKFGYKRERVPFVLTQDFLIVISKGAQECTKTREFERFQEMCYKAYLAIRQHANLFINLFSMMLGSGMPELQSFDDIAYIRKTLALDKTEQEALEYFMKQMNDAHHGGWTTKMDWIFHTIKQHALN
T1 sequence (P27986 whole entry partner): as the sequence (P27986 whole entry partner) above

Compound | IC50 [1, 4] [nM] | IC50 [1, 5] [nM] | IC50 (PI3K-γ kinase (p110γ)) [nM] | IC50 [2] [nM] | IC50 [3] [nM] | IC50 (T47D cells) [nM] | IC50 (MCF-7 cells) [nM]
CS(=O)(=O)C1(c2cc(-c3ccc(N)cc3C(F)(F)F)nc(N3CCOCC3)n2)CC1 [Comparative compound 3, 4-(6-(1-(methylsulfonyl)cyclopropyl)-2-morpholinopyrimidin-4-yl)-3-(trifluoromethyl)aniline, reference compound] | > 1000 |  |  |  |  |  | 
CS(=O)(=O)C1(c2cc(-c3cnc(N)cc3C(F)(F)F)nc(N3CCOCC3)n2)CC1 [Compound S-1, 5-(6-(1-(methylsulfonyl)cyclopropyl)-2-morpholinopyrimidin-4-yl)-4-(trifluoromethyl)pyridin-2-amine] |  | 16 | 288 |  |  |  | 
CC(C)(c1cc(-c2cnc(N)cc2C(F)(F)F)nc(N2CCOCC2)n1)S(C)(=O)=O [Compound S-16] |  |  | 138 | 196 | 244 |  | 
CNC1(c2cc(-c3cnc(N)cc3C(F)(F)F)nc(N3CCOC[C@@H]3C)n2)CCC1 [Compound S-27, (S)-5-(6-(1-(methylamino)cyclobutyl)-2-(3-methylmorpholino)pyrimidin-4-yl)-4-(trifluoromethyl)pyridin-2-amine] | 285 |  |  |  |  |  | 
CCS(=O)(=O)C1(c2cc(-c3cnc(N)cc3C(F)(F)F)nc(N3CCOCC3)n2)CC1 [Compound S-28] |  |  | 765 | 121 | 78 |  | 
C[C@H]1COCCN1c1nc(-c2cnc(N)cc2C(F)(F)F)cc(C2(S(C)(=O)=O)CCCC2)n1 [Compound S-42] |  |  | 718 | 1210 | 324 | 139 | 159
COc1nc(N)ncc1-c1cc(C2(S(C)(=O)=O)CCC2)nc(N2CCOC[C@@H]2C)n1 [Compound S-43] |  |  |  |  |  | 317 | 
Cc1cnc(C2(c3cc(-c4cnc(N)cc4C(F)(F)F)nc(N4CCOCC4)n3)CC2)o1 [Compound S-61, 5-(6-(1-(5-methyloxazol-2-yl)cyclopropyl)-2-morpholinopyrimidin-4-yl)-4-(trifluoromethyl)pyridin-2-amine] | 195 |  |  |  |  |  | 
CS(=O)(=O)Cc1cc(-c2cnc(N)cc2C(F)(F)F)nc(N2CCOCC2)n1 [Compound S-62, 5-(6-(methylsulfonylmethyl)-2-morpholinopyrimidin-4-yl)-4-(trifluoromethyl)pyridin-2-amine] | 189 |  |  |  |  |  | 
CC(C)(c1cc(-c2cnc(N)cc2C(F)(F)F)nc(N2CCOCC2)n1)S(=O)(=O)c1ccc(F)cc1 [Compound S-69] | 59 |  |  |  |  |  | 
Nc1cc(C(F)(F)F)c(-c2cc(C3(S(=O)(=O)c4ccc(F)c(F)c4)CC3)nc(N3CCOCC3)n2)cn1 [Compound S-77] | 62 |  |  |  |  |  | 
CC(C)(c1cc(-c2cnc(N)cc2C(F)(F)F)nc(N2CCOCC2)n1)S(=O)(=O)c1ccc(F)c(F)c1 [Compound S-79] | 55 |  |  |  |  |  | 
CS(=O)(=O)NC1(c2cc(-c3cnc(N)cc3Cl)nc(N3CCOCC3)n2)CC1 [Compound S-90] | 75 |  |  |  |  |  | 

More lines, in order of falling IC50 [1, 4], values ahead:

IC50 [1, 4] [nM] | IC50 [1, 5] [nM] | IC50 (PI3K-γ kinase (p110γ)) [nM] | IC50 [2] [nM] | IC50 [3] [nM] | IC50 (T47D cells) [nM] | IC50 (MCF-7 cells) [nM] | Compound
40 |  |  |  |  |  |  | CC(C)(c1cc(-c2cnc(N)cc2Cl)nc(N2CCOCC2)n1)S(=O)(=O)c1ccccc1 [Compound S-55, 4-chloro-5-(2-morpholinyl-6-(2-(phenylsulfonyl)propan-2-yl)pyrimidin-4-yl)pyridin-2-amine]
35 |  |  |  |  |  |  | CC(C)(c1cc(-c2cnc(N)cc2C(F)(F)F)nc(N2CCOCC2)n1)S(=O)(=O)c1cccc(F)c1 [Compound S-60]
31 |  |  |  |  |  | 474 | CC(C)(c1cc(-c2cnc(N)cc2C(F)(F)F)nc(N2CCOCC2)n1)S(=O)(=O)c1ccccc1Cl [Compound S-80]
28 | 28 | 2500 | 2090 | 1010 |  |  | COC(C)(C)c1cc(-c2cnc(N)cc2C(F)(F)F)nc(N2CCOC[C@H]2C)n1 [Compound S-74]
22 | 22 |  | 1220 |  | 280 | 469 | CC(C)(c1cc(-c2cnc(N)cc2C(F)(F)F)nc(N2CCOCC2)n1)S(=O)(=O)c1ccccc1F [Compound S-65]
22 | 22 |  | 525 |  | 219 |  | CC(C)(c1cc(-c2cnc(N)cc2Cl)nc(N2CCOCC2)n1)S(=O)(=O)c1cccc(F)c1 [Compound S-70]
18 | 18 | 1150 | 797 | 370 |  |  | C[C@@H]1COCCN1c1nc(-c2cnc(N)cc2C(F)(F)F)cc(C(C)(C)O)n1 [Compound S-72]
14 | 14 | 623 | 396 | 514 |  | 176 | C[C@H]1COCCN1c1nc(-c2cnc(N)cc2Cl)cc(C(C)(C)O)n1 [Compound S-73]
14 | 14 | 134 | 386 | 117 | 101 | 170 | Nc1cc(Cl)c(-c2cc(C3(S(=O)(=O)C4CC4)CC3)nc(N3CCOCC3)n2)cn1 [Compound S-87]
7 | 7 | 925 | 419 | 85 | 206 | 318 | Nc1cc(C(F)(F)F)c(-c2cc(C3(S(=O)(=O)c4ccccc4Cl)CC3)nc(N3CCOCC3)n2)cn1 [Compound S-78]
